PMC4666608, “Metabolic Profiling of Chicken Embryos Exposed to Perfluorooctanoic Acid (PFOA) and Agonists to Peroxisome Proliferator-Activated Receptors” (PLoS ONE, 2015)
Marks after values point to notes of the source that are not given here.

Tested on: chicken embryos
Test: Metabolic profiling of blood plasma (GC-MS, LC-MS, OPLS-DA)
Assay type: in vivo, Gallus gallus domesticus
Procedure: Controls were injected with 20 μL vehicle only (DMSO).
Plasma was collected and stored at -70°C.
Metabolites in allantoic fluid and blood plasma were analyzed using gas chromatography-mass spectrometry (GC-MS) and liquid chromatography-mass spectrometry (LC-MS) as described in S1 Methods. Prior to GC-MS and LC-MS analysis, allantoic fluid (100 μL) and blood plasma (50 μL) were extracted. To each sample, 900 μL (allantoic fluid) or 450 μL (blood plasma) of extraction buffer (90/10 v/v methanol:water) including all internal standards were added. Standards for GC-MS were proline, succinic acid, glutamic acid, salicylic acid, alpha-ketoglutarate, putrescine, myristic acid, hexadecanoic acid, cholesterol, and sucrose. Standards for LC-MS were Val-Tyr-Val, Leu-enkephalin, sulfadimethoxine and reserpine. Samples were homogenized by shaking in a bead mill at a frequency of 30 Hz for 3 minutes and proteins were precipitated at +4°C on ice. The samples were centrifuged at +4°C, 14000 rpm, for 10 min. Then, 200 μL supernatant was transferred to a GC microvial and 200 μL was transferred to an LC microvial, and solvents were evaporated. Samples from the four replicate experiments were analyzed using in chronological order and within each replicate experiment the run order of the individual samples was randomized.
Multivariate statistical analyses of metabolite profiles were performed using the software package SIMCA-P version 13.0 (Umetrics, Umeå, Sweden). Data was centered and scaled to variance 1 (UV scaling) prior to modelling. To reduce unintended systematic variation caused by sample processing and instrument drift, GC-MS and LC-MS metabolite amounts (expressed as the area under the chromatographic peak) were normalized by Orthogonal Partial Least Squares analysis (O2PLS) prior to multivariate data analysis. O2PLS finds common (predictive) and unique (orthogonal) variation in two data matrices. If applied to find the common variation between the data matrix containing the measured metabolite concentrations and a matrix containing only the internal standards, the only common (predictive) variation expected is due to the unintended systematic variation. By deleting the contribution of the predictive latent variables, that variation can be removed from the data. Models obtained after this normalization contain in general less latent variables, and this simplification helps when deciding on the number of latent variables to be used. Following normalization, GC-MS and LC-MS data were analyzed together. Initially, a global Principal Component Analysis (PCA) was performed to get an overview of groups and trends and to identify outliers. Projections to latent structures by means of Orthogonal Partial Least Squares Discriminant Analysis (OPLS-DA) was used to model the relationship between the X-matrix (metabolite concentrations) and the Y matrix (class, i.e. exposure group or sex), and to find x-variables that were related to class belonging. OPLS-DA is a supervised prediction and regression method that rotates the projection plane to find the maximum covariance between the data and the class assignment. All groups were first analyzed together in a 5-class OPLS-DA and then each exposure group was analyzed against the control group in a 2-class OPLS-DA. Sex differences were analyzed both using the whole data set and in each group separately using 2-class OPLS-DA, with females and males as the two classes. Only variables with 80% or more nonzero values were included in the statistical models. […] The validity of each model was also checked using CV-ANOVA (ANOVA of the cross-validated residuals). A significance level of p < 0.05 was used. For each model, R ^2 X, R ^2 Y and Q ^2 values were calculated, where R ^2 X is a measure of the fraction of x variation modeled in the extracted latent variables, R ^2 Y is a measure of the fraction of y variation modeled and Q ^2 is an estimate of the predictive ability of the model and is calculated by cross-validation. […]

## CN(CCOc1ccc(CC2SC(=O)NC2=O)cc1)c1ccccn1 (centres unmarked) [Rosiglitazone, rosiglitazone, reference compound]
GC
  Mean concentration relative to control, feature Win006_C03: 1.2*
  Mean concentration relative to control, feature Win011_C02 (Isoleucine): 1.1
  Mean concentration relative to control, feature Win027_C13: 0.9
  Mean concentration relative to control, feature Win031_C03 (Citric acid): 1
  Mean concentration relative to control, feature Win034_C08 (Tyrosine): 1
  Mean concentration relative to control, feature Win034_C09 (Tyrosine): 1.1
  Mean concentration relative to control, feature Win039_C07: 1.2
  Mean concentration relative to control, feature Win043_C02 (Cystathionine): 1
  Mean concentration relative to control, feature Win061_C01: 0.9
  Mean concentration relative to control, feature Win066_C03: 1
  Mean concentration relative to control, feature Win088_C02: 1
LC
  Mean concentration relative to control, feature 118.0284@2.480333 (C4H6O4): 0.8**
  Mean concentration relative to control, feature 122.0486@0.675613: 1
  Mean concentration relative to control, feature 126.0428@1.2278157 (Thymine): 1.0
  Mean concentration relative to control, feature 146.0362@0.7772238: 1.1
  Mean concentration relative to control, feature 159.0686@1.1608156: 1.1
  Mean concentration relative to control, feature 164.0449@0.7694838: 1.1
  Mean concentration relative to control, feature 202.1024@5.0303197 (C8H14N2O4): 1.1
  Mean concentration relative to control, feature 203.1162@0.5130696: 1
  Mean concentration relative to control, feature 213.2458@7.4887733: 1
  Mean concentration relative to control, feature 215.047@1.6260729 (C5H14NO6P): 0.9*
  Mean concentration relative to control, feature 226.0721@1.9460537: 1
  Mean concentration relative to control, feature 231.0174@1.6241412: 0.8*
  Mean concentration relative to control, feature 233.1265@2.535991: 1
  Mean concentration relative to control, feature 250.1317@2.1334834: 1.2
  Mean concentration relative to control, feature 260.0508@0.69984084: 0.8*
  Mean concentration relative to control, feature 276.0173@1.6283482: 0.9
  Mean concentration relative to control, feature 278.0939@1.3354088: 0.9
  Mean concentration relative to control, feature 293.0903@1.5739433: 1
  Mean concentration relative to control, feature 307.2147@7.5065937 (C18H29NO3): 0.9
  Mean concentration relative to control, feature 310.178@7.5343466: 1
  Mean concentration relative to control, feature 339.3861@9.528681: 1.2
  Mean concentration relative to control, feature 342.2883@7.526812: 1
  Mean concentration relative to control, feature 348.0675@1.5761927: 1
  Mean concentration relative to control, feature 355.9454@0.68034226: 1
  Mean concentration relative to control, feature 362.1467@0.8461036: 1.1
  Mean concentration relative to control, feature 366.1431@1.4228548: 0.9*
  Mean concentration relative to control, feature 373.296@9.044806: 1
  Mean concentration relative to control, feature 375.3108@8.995564: 1
  Mean concentration relative to control, feature 389.2686@9.046645: 1
  Mean concentration relative to control, feature 407.0999@1.585909: 0.9*
  Mean concentration relative to control, feature 412.135@2.4779084 (C17H24N4O6S): 0.8**
  Mean concentration relative to control, feature 444.3607@10.33052: 0.9
  Mean concentration relative to control, feature 471.9819@0.685074: 1
  Mean concentration relative to control, feature 489.1508@8.562614: 0.7*
  Mean concentration relative to control, feature 509.1184@2.4798179: 0.8**
  Mean concentration relative to control, feature 525.2855@8.361063: 0.9
  Mean concentration relative to control, feature 545.2492@8.463657: 0.9
  Mean concentration relative to control, feature 558.4095@9.459733: 1.2*
  Mean concentration relative to control, feature 565.1902@0.7699907: 1.1
  Mean concentration relative to control, feature 577.2747@9.25652: 1.1
  Mean concentration relative to control, feature 581.1643@0.77029324: 1.1
  Mean concentration relative to control, feature 634.2403@1.9467853: 1
  Mean concentration relative to control, feature 644.1614@0.7647065: 1.1
  Mean concentration relative to control, feature 659.5483@11.4915495: 1.0
  Mean concentration relative to control, feature 698.2598@1.3599721: 1.2*
  Mean concentration relative to control, feature 700.5514@10.765638: 1.1
  Mean concentration relative to control, feature 755.5465@10.73882: 1.4*
  Mean concentration relative to control, feature 827.5078@8.831237: 1
  Mean concentration relative to control, feature 875.4661@10.5661745: 1.0
  Mean concentration relative to control, feature 1262.4865@1.947075: 1
  Mean concentration relative to control, feature 1316.4163@1.9465046: 1.1*
  Mean concentration relative to control, feature 1591.051@5.0189176: 0.8**
  Mean concentration relative to control, feature 1591.388@5.0202384: 0.9*
  Mean concentration relative to control, feature 1591.7203@5.018071: 0.9*
